Tested on: Sprague-Dawley rats
Assay: Chronic constriction injury model of neuropathic pain
Type: in vivo, rat
Conditions: 100 μmol/kg p.o., 1 hour after dosing
From the text: Adult male Sprague-Dawley rats (250-300 g body weight, Charles River Laboratories, Portage, Mich.) were used. Animal handling and experimental protocols were approved by the Institutional Animal Care and Use Committee (IACUC) at Abbott Laboratories. For all surgical procedures, animals were maintained under isoflurane anesthesia (4-5% to induce, 1-3% to maintain), and the incision sites were sterilized using a 10% povidone-iodine solution prior to and after surgeries.
A model of chronic constriction injury-induced (CCI) neuropathic pain was produced in rats by following the method of Bennett and Xie (Pain, 1988, 33:87). Following sterilization and anesthetic procedures, a 1.5 cm incision was made dorsal to the pelvis, and the biceps femoris and gluteous superficialis (right side) were separated. The right common sciatic nerve was exposed/isolated, and loosely ligated by 4 ligatures of chromic gut (5-0) with <1 mm spacing using hemostats and forceps. […]
Tactile allodynia was measured using calibrated von Frey filaments (Stoelting, Wood Dale, Ill.) as described in Chaplan, S. R., F. W. Bach, J. M. Pogrel, J. M. Chung and T. L. Yaksh, Quantitative assessment of tactile allodynia in the rat paw, J. Neurosci. […]

Structure (SMILES)	% effect [%]
O=C(Nc1cccc2[nH]ncc12)N[C@H]1CC[C@@H](c2ccccc2)C1 [Example 28, 1-(1H-indazol-4-yl)-3-[(1S,3R)-3-phenylcyclopentyl]urea]	54
O=C(Nc1cccc2[nH]ncc12)N[C@H]1CC[C@H](c2ccccc2)C1 [Example 14, 1-(1H-indazol-4-yl)-3-[(1S,3S)-3-phenylcyclopentyl]urea]	53

From patent US8802711B2, “TRPV1 antagonists” (AbbVie Inc., priority 2011, dated 2014)
